The structures appear in SMILES notation.

Results on three compounds are retold here after EP0745595A1, “3-(3-Aryloxyphenyl)-1-(substituted methyl)-s-triazine-2,4,6-oxo or thiotrione herbicidal agents” (American Cyanamid Company, priority 1995, dated 1996).

Common to all, as to format: in vivo
Data set [1] concerns AMBROSIA ARTEMISIIFOLIA, L. As to the kind of experiment: Postemergence herbicidal evaluation, AMBEL (Ragweed, Common). The conditions noted are these: rated four to five weeks after treatment, averaged. A digest of the protocol:
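Common ragweed (Ambrosia artemisiifolia) seedlings were raised in jiffy flats for roughly two weeks, then sprayed postemergence through a nozzle at 40 psi with the test compound dispersed in 50/50 acetone/water carrying 0.5% TWEEN®20. The plants were kept on greenhouse benches under conventional care. Four to five weeks later, injury was rated visually on a 0-9 scale, and repeat tests were averaged.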

In data set [2] the test system is CHENOPODIUM ALBUM, L. The data set is described as follows: Preemergence herbicidal evaluation, CHEAL (Lambsquarters, Common). Particulars: four to five weeks after treatment. The procedure, abridged: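 First, seeds in potting soil are sown atop soil in cups. Next, the surface is sprayed with test compound in aqueous acetone at roughly 0.125 to 0.50 kg per hectare. After four to five weeks of greenhouse care, each cup is scored 0-9 against a control.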

The test system of data set [3] is ECHINOCHLOA ORYZOIDES (ARD.)FRITSCH. As to the kind of experiment: Preemergence weed control under flooded paddy conditions, ECHORC (Watergrass (Calif.)). The conditions noted are these: preemergence weeds, rated three to four weeks after treatment. The procedure, abridged:
(§1)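 Flooded paddy preemergence test: seeds/propagating organs in top 0.5 cm silt loam, water held 1.5-3 cm above soil. Dosing by pipette into flood water, aqueous/acetone 50/50 v/v, ~0.5, 0.25, 0.125, 0.063 kg/ha a.i. Greenhouse; read at 3-4 wk, 0-9 visual scale.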

For data set [4], the system named is SETARIA VIRIDIS, (L) BEAU. As to the kind of experiment: Postemergence herbicidal evaluation, SETVI (Foxtail, Green). The conditions noted are these: rated four to five weeks after treatment, averaged. A digest of the protocol:
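Seedlings about two weeks old were sprayed with compound in 50/50 acetone/water containing 0.5% Tween 20 at about 0.125-0.500 kg/ha and kept in the greenhouse. Visual injury was rated on a 0-9 scale versus control 4-5 weeks after treatment; repeat tests were averaged.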

Data set [5] concerns CASSIA OBTUSIFOLIA, L. The data set is described as follows: Preemergence herbicidal evaluation, CASOB (Sicklepod). Particulars: four to five weeks after treatment. The source says:
(§2) Results of herbicide evaluation are expressed on a rating scale (0-9). The scale is based upon a visual observation of plant stand, vigor, malformation, size, chlorosis and overall plant appearance as compared with a control.
(§3) The preemergence herbicidal activity of the test compounds of the present invention is exemplified by the following tests in which the seeds of a variety of monocotyledonous and dicotyledonous plants are separately mixed with potting soil and planted on top of approximately one inch of soil in separate pint cups. […] The treated cups are then placed on greenhouse benches, watered and cared for in accordance with conventional greenhouse procedures. From four to five weeks after treatment, the tests are terminated and each cup is examined and rated according to the rating system provided in Example 40.
(§4) The compounds evaluated are reported by compound number given in Example 40.

The test system of data set [6] is ORYZA SATIVA, L. TEBONNET
As to the kind of experiment: Rice tolerance to post-transplant applications under flooded paddy conditions, ORYSAT (Rice, Tebonnet).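 Note: applied to flooded soil surface three days after transplanting.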 Particulars: post-transplant rice, rated three to four weeks after treatment. A digest of the protocol:
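Post-transplant paddy test: compound applied 3 d after transplanting to flooded soil (1.5-3 cm water), ~0.063-0.5 kg/ha a.i., 50/50 aq/acetone. Silt loam, 2 × 10-d seedlings/pot. Greenhouse 3-4 wk, visual 0-9 score vs control.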

Data set [7] has as its system ZEA MAYS L. As to the kind of experiment: Preemergence herbicidal evaluation, ZEAMX (Corn, Field). Particulars: four to five weeks after treatment.
Excerpt: as §2, §3, §4

Data set [8] concerns ABUTILON THEOPHRASTI, MEDIC. The data set is described as follows: Postemergence herbicidal evaluation, ABUTH (Velvetleaf). Particulars: rated four to five weeks after treatment, averaged. A digest of the protocol:
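Velvetleaf (Abutilon theophrasti) seedlings were raised in jiffy flats for about two weeks and then sprayed postemergence. The test compound was dispersed in a 50/50 acetone/water mixture containing 0.5% TWEEN®20 and applied through a nozzle operating at 40 psi. Plants were kept on greenhouse benches and rated 0-9 four to five weeks after treatment.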

For data set [9], the system named is CHENOPODIUM ALBUM, L. As to the kind of experiment: Postemergence herbicidal evaluation, CHEAL (Lambsquarters, Common). Particulars: rated four to five weeks after treatment, averaged. The procedure, abridged: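 Seedlings of common lambsquarters (Chenopodium album) were raised in jiffy flats for roughly two weeks, then sprayed postemergence through a nozzle at 40 psi with test compound dispersed in 50/50 acetone/water containing 0.5% TWEEN®20 surfactant. Plants were kept on greenhouse benches under standard care and rated visually on a 0-9 scale versus controls.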

Data set [10] deals with IPOMOEA SPP. The data set is described as follows: Postemergence herbicidal evaluation, IPOSS (Morningglory spp.). The conditions noted are these: rated four to five weeks after treatment, averaged. The procedure, abridged:
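Seedlings of morningglory (Ipomoea spp.) were raised in jiffy flats for roughly two weeks. They were then sprayed postemergence through a nozzle at 40 psi with test compound dispersed in 50/50 acetone/water containing 0.5% TWEEN®20 surfactant. Plants were kept on greenhouse benches under standard care and visually rated 0-9 against controls four to five weeks after treatment.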

Data set [11] concerns SAGITTARIA PYGMAEA, L. As to the kind of experiment: Preemergence weed control under flooded paddy conditions, SAGPY (Arrowhead (Pygmaea)). Particulars: preemergence weeds, rated three to four weeks after treatment. A digest of the protocol:
as §1

Data set [12] concerns CASSIA OBTUSIFOLIA, L. The data set is described as follows: Postemergence herbicidal evaluation, CASOB (Sicklepod). The conditions noted are these: rated four to five weeks after treatment, averaged. The procedure, abridged:
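Visual 0–9 scores reflect stand, vigor, malformation, size, chlorosis and overall appearance relative to control, taken 4–5 weeks after spraying two-week-old seedlings with about 0.125–0.500 kg/ha compound in acetone/water/TWEEN 20.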

Data set [13] deals with GLYCINE MAX(L) MERR. CV. WILLIAMS
As to the kind of experiment: Preemergence herbicidal evaluation, GLXMAW (Soybean, Williams). The conditions noted are these: four to five weeks after treatment.
Excerpt: as §2, §3, §4

Data set [14] deals with ECHINOCHLOA CRUS-GALLI, (L) BEAU. The data set is described as follows: Preemergence herbicidal evaluation, ECHCG (Barnyardgrass). The conditions noted are these: four to five weeks after treatment.
Excerpt: as §2, §3, §4

Data set [15] concerns GALIUM APARINE. The data set is described as follows: Preemergence herbicidal evaluation, GALAP (Galium). Particulars: four to five weeks after treatment.
Excerpt: as §2, §3, §4

Data set [16] concerns CYPERUS SEROTINUS, ROTTB. The data set is described as follows: Preemergence weed control under flooded paddy conditions, CYPSE (Flatsedge). Particulars: preemergence weeds, rated three to four weeks after treatment. A digest of the protocol:
as §1

Consider `CCOC(=O)Cn1c(=O)n(C)c(=O)n(-c2cc(Oc3c(F)cc(C(F)(F)F)cc3Cl)ccc2C#N)c1=O` [Compound 11, Ethyl 3-{5-[(2-chloro-α,α,α,6-tetrafluoro-p-tolyl)oxy]-2-cyanophenyl}tetrahydro-5-methyl-2,4,6-trioxo-s-triazine-1(2H)-acetate], for which the “AMBEL, herbicide rating (0-9)” value in data set [1] (Rate 0.125 kg/ha), in data set [1] (Rate 0.250 kg/ha) and in [1] (Rate 0.500 kg/ha) was 9.0 each time. Further, the CHEAL rating in [2] (Rate 0.125 kg/ha), in [2] (Rate 0.250 kg/ha) and in data set [2] (Rate 0.500 kg/ha) was 9.0 in each case. Besides, the ECHORC herbicidal rating in data set [3] (Rate 0.063 kg/ha), in [3] (Rate 0.125 kg/ha), in data set [3] (Rate 0.250 kg/ha) and in [3] (Rate 0.500 kg/ha) was 9.0 in each case. Further, the “SETVI, herbicide rating (0-9)” value in data set [4] (Rate 0.125 kg/ha), in [4] (Rate 0.250 kg/ha) and in data set [4] (Rate 0.500 kg/ha) was 9.0 in each case. The CASOB rating in data set [5] (Rate 0.125 kg/ha), in data set [5] (Rate 0.250 kg/ha) and in [5] (Rate 0.500 kg/ha) was 0.0 in each case. For the same compound, the “ORYSAT herbicidal rating (rice tolerance)” value (“ORYSAT herbicidal rating” for short) in [6] (Rate 0.063 kg/ha) was 0.0; in data set [6] (Rate 0.125 kg/ha) it was 0.0; in data set [6] (Rate 0.250 kg/ha), 1.0; in data set [6] (Rate 0.500 kg/ha), 1.0. Besides, the ZEAMX rating in data set [7] (Rate 0.125 kg/ha), in data set [7] (Rate 0.250 kg/ha) and in [7] (Rate 0.500 kg/ha) was 0.0 in each case. Besides, the “ABUTH, herbicide rating (0-9)” value in data set [8] (Rate 0.125 kg/ha), in [8] (Rate 0.250 kg/ha) and in data set [8] (Rate 0.500 kg/ha) was 9.0 in each case. The “CHEAL, herbicide rating (0-9)” value in data set [9] (Rate 0.125 kg/ha), in [9] (Rate 0.250 kg/ha) and in data set [9] (Rate 0.500 kg/ha) was 9.0 each time. The “IPOSS, herbicide rating (0-9)” value in data set [10] (Rate 0.125 kg/ha), in [10] (Rate 0.250 kg/ha) and in data set [10] (Rate 0.500 kg/ha) was 9.0 in each case. In addition, the SAGPY herbicidal rating in [11] (Rate 0.063 kg/ha), in data set [11] (Rate 0.125 kg/ha), in data set [11] (Rate 0.250 kg/ha) and in [11] (Rate 0.500 kg/ha) was 0.0 throughout. In addition, the “CASOB, herbicide rating (0-9)” value in [12] (Rate 0.125 kg/ha), in [12] (Rate 0.250 kg/ha) and in data set [12] (Rate 0.500 kg/ha) was 9.0 in each case. Moreover, the GLXMAW rating in data set [13] (Rate 0.125 kg/ha), in data set [13] (Rate 0.250 kg/ha) and in data set [13] (Rate 0.500 kg/ha) was 0.0 throughout. In addition, the ECHCG rating in [14] (Rate 0.125 kg/ha), in data set [14] (Rate 0.250 kg/ha) and in data set [14] (Rate 0.500 kg/ha) was 0.0 each time.

For `C#CCn1c(=O)n(CC(=O)OCC)c(=O)n(-c2cc(Oc3ccc(C(F)(F)F)cc3Cl)ccc2[N+](=O)[O-])c1=O` [Compound 7, Ethyl 3-{5-[(2-chloro-α,α,α-trifluoro-p-tolyl)oxy]-2-nitrophenyl}tetrahydro-2,4,6-trioxo-5-(2-propynyl)-s-triazine-1(2H)-acetate], the “ORYSAT herbicidal rating” value in data set [6] (Rate 0.125 kg/ha) is recorded as 0.0; in data set [6] (Rate 0.250 kg/ha) it was 0.0; in [6] (Rate 0.500 kg/ha), 1.0. The GALAP rating in data set [15] (Rate 0.125 kg/ha) was 4.0; in data set [15] (Rate 0.250 kg/ha), 8.0; in data set [15] (Rate 0.500 kg/ha), 9.0. For the same compound, the SAGPY herbicidal rating in data set [11] (Rate 0.125 kg/ha), in data set [11] (Rate 0.250 kg/ha) and in data set [11] (Rate 0.500 kg/ha) was 0.0 throughout. Also, the CYPSE herbicidal rating in data set [16] (Rate 0.125 kg/ha) and in data set [16] (Rate 0.250 kg/ha) was 0.0 in each case.

`CCOC(=O)Cn1c(=O)n(CC(=O)OC)c(=O)n(-c2cc(Oc3ccc(C(F)(F)F)cc3Cl)ccc2[N+](=O)[O-])c1=O` [Compound 6, 1-Ethyl methyl 5-{5-[(2-chloro-α,α,α-tri-fluoro-p-tolyl)oxy]-2-nitrophenyl}dihydro-2,4,6-trioxo-s-triazine-1,3(2H,4H)-diacetate]: the CHEAL rating in [2] (Rate 0.125 kg/ha), in [2] (Rate 0.250 kg/ha) and in data set [2] (Rate 0.500 kg/ha) was 9.0 in each case. Moreover, the “ORYSAT herbicidal rating” value in [6] (Rate 0.125 kg/ha), in data set [6] (Rate 0.250 kg/ha) and in data set [6] (Rate 0.500 kg/ha) was 1.0 throughout. The “ABUTH, herbicide rating (0-9)” value in data set [8] (Rate 0.125 kg/ha), in [8] (Rate 0.250 kg/ha) and in data set [8] (Rate 0.500 kg/ha) was 9.0 in each case. Besides, the GALAP rating in data set [15] (Rate 0.125 kg/ha), in [15] (Rate 0.250 kg/ha) and in [15] (Rate 0.500 kg/ha) was 9.0 throughout. The SAGPY herbicidal rating in [11] (Rate 0.125 kg/ha), in [11] (Rate 0.250 kg/ha) and in [11] (Rate 0.500 kg/ha) was 0.0 throughout.
